Measured values: patent US8992892B2, “Use of 1-(2,4-dihydroxy-phenyl)-3-(3-hydroxy-4-methoxy-phenyl)-propan-1-one” (SYMRISE AG, priority 2010, dated 2015)

Tests used:
Assay type in all cases: in vivo
[1] = Bitter reduction of a caffeine solution, rated by a group of experts
Source text: In order to quantify the decrease (i.e. the masking or reduction) in bitter impression in a specimen, the bitterness of a 500 ppm caffeinated solution was compared by a group of experts in each case with a specimen containing 500 ppm caffeine and also various concentrations of deoxy hesperetin dihydrochalcone (I) (rating: 1 [not bitter] to 10 [extremely bitter]).
For the assessment, i.e. calculation of the reduction (in %) of the bitter impression in each case the average values of the assessments of the group of experts for the caffeinated solution and the specimen to be compared containing caffeine and a substance to be assessed were used. 2,4-dihydroxybenzoic acid (2,4-DHB) was used here for comparison (reference) in accordance with U.S. Pat. No. 5,643,941.

[2] = Intensification of the sweet impression of a sugar solution, rated by a group of experts; design: key to Sweet impression (1-10) Specimen (Sucrose + (I)) / Sweet impression (1-10) Specimen (sucrose + substance): 1 = not sweet, 10 = extremely sweet
Source text: In order to quantify the intensification of the sweet impression, in each case the sweetness of a 5% sucrose solution was compared by a group of experts with a specimen containing 5% sucrose and 10 ppm, 25 ppm, 50 ppm or 75 ppm of the deoxy hesperetin dihydrochalcone (I) to be used according to the invention (rating: 1 [not sweet] to 10 [extremely sweet]).
For the assessment, i.e. calculation of the intensification (in %) of the sweet impression in each case the average values of the assessments of the group of experts for the sucrose solution and the specimen for comparison containing sucrose and deoxy hesperetin dihydrochalcone (I) were used.
In order to quantify the intensification of the sweetness impression, in each case the sweetness of a 5% sucrose solution was compared by a group of experts with a specimen containing 5% sucrose and 30 ppm or 50 ppm of a deoxy dihydrochalcone ((rating: 1 [not sweet] to 10 [extremely sweet])).
For the assessment, i.e. calculation of the intensification (in %) of the sweet impression in each case the average values of the assessments of the group of experts for the sucrose solution and the specimen containing sucrose and deoxy dihydrochalcone for comparison were used.

[3] = Inherent sweetness in water against a sucrose concentration series (sucrose equivalence), panelists
Source text: (§1) The panelists were asked to test each solution of the compound (I) in water against the sucrose series and to rate it according is degree of sweetness (sucrose equivalence). From the results produced by the panelists it was possible to determine the inherent sweetness of the deoxy hesperetin dihydrochalcone (I) for the above-mentioned concentrations. Apart from the sucrose equivalence of the solutions of the compound (I) in water (i.e. without sucrose) the sucrose equivalence in a 5% sucrose solution was also determined with a corresponding quantity of compound (I).

[4] = Bitter reduction of a naringin solution, rated by a group of experts; settings: 100 ppm naringin + 50 ppm (I)
Source text: (§2) In order to quantify the decrease (i.e. the masking or reduction) in the bitter impression in a specimen, the bitterness of a solution containing either 100 ppm naringin or 250 ppm salicin or 500 ppm epigallocatechin gallate and 75 ppm ascorbic acid was compared by a group of experts in each case with a specimen containing either 100 ppm naringin or 250 ppm salicin or 500 ppm epigallocatechin gallate and 75 ppm ascorbic acid and additionally 50 ppm deoxy hesperetin dihydrochalcone (I) (rating: 1 [not bitter] to 10 [extremely bitter]).
(§3) For the assessment, i.e. calculation of the reduction (in %) of the bitter impression in each case the average values of the assessments of the group of experts for the respective bitter substance solution and the bitter substance solution also containing 50 ppm deoxy hesperetin dihydrochalcone (I) were used.

[5] = Bitter reduction of an epigallocatechin gallate solution, rated by a group of experts; settings: 500 ppm epigallocatechin gallate + 75 ppm ascorbic acid + 50 ppm (I)
Source text: as §2, §3

[6] = Bitter reduction of a salicin solution, rated by a group of experts; settings: 250 ppm salicin + 50 ppm (I)
Source text: as §2, §3

[7] = Sucrose equivalence in a 5% sucrose solution with (I), panelists; settings: for Sucrose equivalence in a 5% sucrose solution with (I), Calculation (5 + x) %: purely additive expected value; for synergy or synergistic additional effect: determined vs theoretically expected value
Source text: as §1
In all the cases tested a synergistic intensification in sweetness was found when an in itself not sweet concentration of deoxy hesperetin dihydrochalcone (I) was added. So it could in theory be expected that a 5% sucrose solution (i.e. a sucrose solution which sensorially by definition corresponds to 5% sucrose equivalents), containing 10 ppm, 25 ppm, 50 ppm or 75 ppm deoxy hesperetin dihydrochalcone (I), through a purely additive effect of the inherent sweetness of deoxy hesperetin dihydrochalcone (I) (see the sucrose equivalence determined in water) results in a sweetness of approximately 5.13%, 5.33%, 5.58% and again 5.58% sucrose equivalents. […] This corresponds in view of the purely theoretically expected values to a synergy or a synergistic additional effect of approximately 25%, 29%, 47% or 27%. It is noticeable that at the maximum tested concentration of 75 ppm—as might be expected—neither the maximum absolute nor the maximum synergistic intensification was measured.

[8] = as above; settings: 0.0100 % by weight (I); purely additive expected value
[9] = 100 ppm substance + 500 ppm caffeine vs caffeinated solution
[10] = 100 ppm substance + 500 ppm caffeine, rating 1 [not bitter] to 10 [extremely bitter]
[11] = Application example 4: 50 ppm deoxy dihydrochalcone + 5% sucrose vs sucrose solution
[12] = Application example 4: 50 ppm deoxy dihydrochalcone + 5% sucrose, rating 1-10

O=C(O)c1ccc(O)cc1O [2,4-DHB, 2,4-dihydroxybenzoic acid, reference compound]
Reduction in bitter impression [1, 9]: 3% | Bitter impression (1-10) Specimen (Caffeine + substance) [1, 10]: 5.0 ± 1.0

COc1cc(CCC(=O)c2ccc(O)cc2O)ccc1O [2′,4,4′-trihydroxy-3-methoxy dihydrochalcone, reference compound]
Intensification of the sweet effect [2, 11]: 8% | Sweet impression (1-10) Specimen (sucrose + substance) [2, 12]: 5.6 ± 1.4

O=C(CCc1ccc(O)cc1)c1ccc(O)cc1O [davidigenin (1), davidigenin, reference compound]
Intensification of the sweet effect ([2]; Application example 4: 30 ppm deoxy dihydrochalcone + 5% sucrose vs sucrose solution): 2% | Sweet impression (1-10) Specimen (sucrose + substance) ([2]; Application example 4: 30 ppm deoxy dihydrochalcone + 5% sucrose, rating 1-10): 5.7 ± 1.4

COc1ccc(CCC(=O)c2ccc(O)cc2O)cc1O [deoxy hesperetin dihydrochalcone (I), 1-(2,4-dihydroxy-phenyl)-3-(3-hydroxy-4-methoxy-phenyl)-propan-1-one]
Determination of the sucrose equivalence in water (without sucrose) ([3]; 0.0010 % by weight (I) in water): 0.13% | Determination of the sucrose equivalence in water (without sucrose) ([3]; 0.0025 % by weight (I) in water): 0.33% | Determination of the sucrose equivalence in water (without sucrose) ([3]; 0.0050 % by weight (I) in water): 0.58% | Determination of the sucrose equivalence in water (without sucrose) ([3]; 0.0075 % by weight (I) in water): 0.58% | Determination of the sucrose equivalence in water (without sucrose) ([3]; 0.0100 % by weight (I) in water): 0.79% | own sweetness of the compound ([3]; own investigations): not in itself particularly sweet | Intensification of the sweet impression ([2]; 10 ppm (I) + 5% sucrose vs sucrose solution): 21% | Sweet impression (1-10) Specimen (Sucrose + (I)) ([2]; 10 ppm (I) + 5% sucrose, rating 1 [not sweet] to 10 [extremely sweet]): 6.4 ± 1.6 | Intensification of the sweet impression ([2]; 25 ppm (I) + 5% sucrose vs sucrose solution): 42% | Sweet impression (1-10) Specimen (Sucrose + (I)) ([2]; 25 ppm (I) + 5% sucrose, rating 1-10): 6.9 ± 1.9 | Intensification of the sweet impression ([2]; 50 ppm (I) + 5% sucrose vs sucrose solution): 48% | Sweet impression (1-10) Specimen (Sucrose + (I)) ([2]; 50 ppm (I) + 5% sucrose, rating 1-10): 8.2 ± 0.9 | Intensification of the sweet impression ([2]; 75 ppm (I) + 5% sucrose vs sucrose solution): 21% | Sweet impression (1-10) Specimen (Sucrose + (I)) ([2]; 75 ppm (I) + 5% sucrose, rating 1-10): 7.1 ± 1.7 | Intensification of the sweet effect [2, 11]: 48% | Sweet impression (1-10) Specimen (sucrose + substance) [2, 12]: 8.2 ± 0.9 | sweetness-intensifying effect ([2]; own investigations): strong, sweetness-intensifying effect | sweetness intensifying effect compared with structurally related substances (1)-(3) ([2]; see Application example 4): clearly the most powerful compound | Reduction in bitter impression [4]: 7% | Bitter impression (1-10) Bitter substance + (I) ([4]; rating 1-10): 6.4 ± 2.4 | Reduction in bitter impression [5]: 10% | Bitter impression (1-10) Bitter substance + (I) ([5]; rating 1-10): 6.1 ± 2.9 | Reduction in bitter impression [6]: 15% | Bitter impression (1-10) Bitter substance + (I) ([6]; rating 1-10): 6.5 ± 2.2 | Sucrose equivalence in a 5% sucrose solution with (I), Determination ([7]; 0.0010 % by weight (10 ppm) (I) in 5% sucrose): 6.4% | Sucrose equivalence in a 5% sucrose solution with (I), Determination ([7]; 0.0025 % by weight (25 ppm) (I) in 5% sucrose): 6.9% | Sucrose equivalence in a 5% sucrose solution with (I), Calculation (5 + x) % ([7]; 0.0025 % by weight (25 ppm) (I)): 5.33% | Sucrose equivalence in a 5% sucrose solution with (I), Determination ([7]; 0.0050 % by weight (50 ppm) (I) in 5% sucrose): 8.2% | Sucrose equivalence in a 5% sucrose solution with (I), Calculation (5 + x) % ([7]; 0.0050 % by weight (50 ppm) (I)): 5.58% | Sucrose equivalence in a 5% sucrose solution with (I), Determination ([7]; 0.0075 % by weight (75 ppm) (I) in 5% sucrose): 7.1% | Sucrose equivalence in a 5% sucrose solution with (I), Calculation (5 + x) % ([7]; 0.0075 % by weight (75 ppm) (I)): 5.58% | synergy or synergistic additional effect ([7]; 10 ppm (I) in 5% sucrose): approximately 25% | synergy or synergistic additional effect ([7]; 25 ppm (I) in 5% sucrose): ~29% | synergy or synergistic additional effect ([7]; 50 ppm (I) in 5% sucrose): ~47% | synergy or synergistic additional effect ([7]; 75 ppm (I) in 5% sucrose): ~27% | Reduction in bitter impression ([1]; 10 ppm substance + 500 ppm caffeine vs caffeinated solution): 2% | Bitter impression (1-10) Specimen (Caffeine + substance) ([1]; 10 ppm substance + 500 ppm caffeine, rating 1-10): 4.8 ± 1.6 | Reduction in bitter impression ([1]; 25 ppm substance + 500 ppm caffeine vs caffeinated solution): 26% | Bitter impression (1-10) Specimen (Caffeine + substance) ([1]; 25 ppm substance + 500 ppm caffeine, rating 1-10): 3.8 ± 1.5 | Reduction in bitter impression ([1]; 50 ppm substance + 500 ppm caffeine vs caffeinated solution): 11% | Bitter impression (1-10) Specimen (Caffeine + substance) ([1]; 50 ppm substance + 500 ppm caffeine, rating 1-10): 3.7 ± 1.6 | Reduction in bitter impression [1, 9]: 3% | Bitter impression (1-10) Specimen (Caffeine + substance) [1, 10]: 4.9 ± 1.9 | Sucrose equivalence in a 5% sucrose solution with (I), Calculation (5 + x) % [8]: 5.79%

COc1ccc(CCC(=O)c2ccc(O)cc2O)cc1 [reference compound]
Intensification of the sweet effect [2, 11]: 12% | Sweet impression (1-10) Specimen (sucrose + substance) [2, 12]: 6.1 ± 1.8
